ChEMBL document CHEMBL1146525, “New triterpenoid alkaloid cholinesterase inhibitors from Buxus hyrcana” (J Nat Prod, 2003)

What was measured:
[1] = target: Acetylcholinesterase (Electrophorus electricus, UniProt O42275); assay: Inhibition of electric eel AChE by modified Ellman method
[2] = target: Cholinesterase (Homo sapiens, UniProt P06276); assay: Inhibition of BChE
[3] = Selectivity ratio of IC50 for electric eel AChE to IC50 for BChE

Sequence of Cholinesterase (P06276 whole entry): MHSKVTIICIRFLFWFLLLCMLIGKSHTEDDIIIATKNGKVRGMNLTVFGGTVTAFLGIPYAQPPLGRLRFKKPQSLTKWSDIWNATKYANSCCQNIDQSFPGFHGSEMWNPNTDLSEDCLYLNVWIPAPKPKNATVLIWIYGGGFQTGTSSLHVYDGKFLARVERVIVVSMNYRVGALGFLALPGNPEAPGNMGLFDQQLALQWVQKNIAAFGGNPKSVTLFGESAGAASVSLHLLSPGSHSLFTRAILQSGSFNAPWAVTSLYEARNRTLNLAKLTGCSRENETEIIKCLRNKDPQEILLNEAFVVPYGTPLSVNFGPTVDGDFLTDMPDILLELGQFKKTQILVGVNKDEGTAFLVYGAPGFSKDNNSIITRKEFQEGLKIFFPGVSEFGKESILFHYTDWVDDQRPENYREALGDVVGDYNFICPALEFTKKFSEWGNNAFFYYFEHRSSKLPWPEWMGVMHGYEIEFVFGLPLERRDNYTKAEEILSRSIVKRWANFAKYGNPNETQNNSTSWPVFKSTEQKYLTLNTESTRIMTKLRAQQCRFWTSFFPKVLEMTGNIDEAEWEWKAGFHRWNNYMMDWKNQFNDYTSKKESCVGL
Sequence of Acetylcholinesterase (O42275 whole entry): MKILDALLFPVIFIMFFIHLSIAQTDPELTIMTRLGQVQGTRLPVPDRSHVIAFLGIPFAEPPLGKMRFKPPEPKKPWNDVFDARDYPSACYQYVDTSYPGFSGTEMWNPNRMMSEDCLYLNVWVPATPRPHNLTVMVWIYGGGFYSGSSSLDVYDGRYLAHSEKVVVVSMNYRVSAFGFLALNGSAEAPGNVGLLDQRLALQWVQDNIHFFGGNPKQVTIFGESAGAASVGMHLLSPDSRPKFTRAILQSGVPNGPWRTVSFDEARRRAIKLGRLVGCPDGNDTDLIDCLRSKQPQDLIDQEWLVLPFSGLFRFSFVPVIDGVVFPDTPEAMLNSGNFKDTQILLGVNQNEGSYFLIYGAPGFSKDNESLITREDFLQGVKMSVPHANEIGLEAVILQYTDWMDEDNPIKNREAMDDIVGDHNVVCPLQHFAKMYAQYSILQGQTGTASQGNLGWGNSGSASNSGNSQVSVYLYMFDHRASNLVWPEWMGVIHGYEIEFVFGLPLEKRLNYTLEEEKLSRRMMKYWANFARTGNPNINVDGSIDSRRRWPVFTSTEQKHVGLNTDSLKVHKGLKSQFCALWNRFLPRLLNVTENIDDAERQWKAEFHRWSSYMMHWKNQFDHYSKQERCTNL

For C[C@@H]([C@H]1CC[C@@]2(C)[C@@H]3CC[C@H]4C(C)(C)[C@@H](NC(=O)c5ccccc5)CC[C@]4(O)CC3=CC[C@]12C)N(C)C [N-BENZOYLBUXAHYRCANINE], the IC50 [1] was > 1000 µM, the IC50 [2] was 311 µM and the Ratio IC50 [3] was 3.2.
For CC(C)C(=O)N[C@H]1CC[C@]2(O)CC3=CC[C@]4(C)[C@@H]([C@H](C)N(C)C)CC[C@@]4(C)[C@@H]3CC[C@H]2C1(C)C [N-ISOBUTYROYLBUXAHYRCANINE], the IC50 [1] was > 1000 µM, the IC50 [2] was 53.7 µM and the Ratio IC50 [3] was 18.6.
With C/C=C(\C)C(=O)N[C@H]1CC[C@]2(O)CC3=CC[C@]4(C)[C@@H]([C@H](C)N(C)C)CC[C@@]4(C)[C@@H]3CC[C@H]2C1(C)C [N-TIGLOYLBUXAHYRCANINE] the IC50 [1] was 444 µM, the IC50 [2] was 31.2 µM and the Ratio IC50 [3] was 14.2.
